Values quoted from earlier work as cited in patent US8884000B2 (priority 2010, dated 2014).

Molecular target: saporin-L1 (Saponaria officinalis, UniProt Q2QEH4)
Conditions: pH 7.8

Sequence of saporin-L1 (Q2QEH4 22-280 limits assumed): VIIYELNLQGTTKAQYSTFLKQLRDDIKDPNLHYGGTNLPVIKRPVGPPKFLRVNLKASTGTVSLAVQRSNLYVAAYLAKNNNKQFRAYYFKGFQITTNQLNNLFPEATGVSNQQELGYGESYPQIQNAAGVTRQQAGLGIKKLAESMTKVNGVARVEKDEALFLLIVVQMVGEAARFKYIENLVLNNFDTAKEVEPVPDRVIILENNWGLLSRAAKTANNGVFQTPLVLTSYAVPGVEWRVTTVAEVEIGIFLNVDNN

**Q.** Which results are given for poly(A)?
**A.** Km: 639 ± 32 µM; kcat: 61 ± 1 min⁻¹
